Reference: PMC7504088, ““Clicking” an Ionic Liquid to a Potent Antimicrobial Peptide: On the Route towards Improved Stability” (International Journal of Molecular Sciences, 2020)
Marks after values point to notes of the source that are not given here. Ends that are not written are not given here. Peptide text beside a SMILES is read from it. * marks the point of attachment. X1 = C[n+]1ccn(Cc2cn(CC(=O)*)nn2)c1

Legend:
S. aureus ATCC 25923 = assay type: cell-based, Staphylococcus aureus
Protocol: (§1) Both the conjugate MeIm-3.1-PP4 and its parent peptide 3.1-PP4 were next screened for their antibacterial activity. Minimum inhibitory concentration (MIC) values were determined following the Clinical and Laboratory Standards Institute (CLSI) protocol, against Gram-positive (Staphylococcus aureus and Enterococcus faecalis), and Gram-negative (Pseudomonas aeruginosa, Escherichia coli and Klebsiella pneumoniae) bacteria, including both reference strains (American Type Culture Collection, ATCC), and multidrug-resistant (MDR) clinical isolates. […] Relevantly, in most cases, MIC values matched the minimum bactericidal concentration (MBC) values, highlighting a bactericidal action for both MeIm-3.1-PP4 and its parent peptide.
(§2) The MIC of the test compounds was determined according to the CLSI guidelines. Briefly, the compounds were tested in the 1–1024 µg/mL concentration range, using the microdilution method in cation-adjusted Mueller-Hinton broth (MHB II) against reference strains of P. aeruginosa ATCC 27853, E. coli ATCC 25922, S. aureus ATCC 25923, and Enterococcus faecalis ATCC 29212. MIC values were also determined against MDR clinical isolates (antibiotic resistance patterns given in Supplementary Materials, Table S1) of P. aeruginosa (PA004, Pa3, Pa4), E. coli (Ec2, EC001, EC002, EC003), K. pneumoniae (KP004, KP010), S. aureus (SA007), and Enterococcus faecalis (Ef1). Along with the MIC values, MBC values were also determined as previously reported.

[1] = test system: S. aureus SA007 (MDR clinical isolate); assay type: cell-based, Staphylococcus aureus
Protocol: as §1, §2

[2] = test system: P. aeruginosa PA004 (MDR clinical isolate); assay type: cell-based, Pseudomonas aeruginosa
Protocol: as §1, §2

[3] = test system: P. aeruginosa Pa3 (MDR clinical isolate); assay type: cell-based, Pseudomonas aeruginosa
Protocol: as §1, §2

P. aeruginosa ATCC 27853 = assay type: cell-based, Pseudomonas aeruginosa
Protocol: as §1, §2

[4] = test system: P. aeruginosa Pa4 (MDR clinical isolate); assay type: cell-based, Pseudomonas aeruginosa
Protocol: as §1, §2

[5] = test system: preformed biofilms of KP010 (MDR clinical isolate of K. pneumoniae); experiment: Effect on preformed biofilms, OD600 of planktonic phase; assay type: cell-based, Klebsiella pneumoniae; conditions: 20×MIC, 24 h at 37 °C, untreated biofilms 0.740 ± 0.047, mean ± SD of three independent experiments in triplicate
Protocol: Biofilm proliferation was determined by measuring the optical density (OD) of the planktonic phase of the biofilms, both treated with the test compounds and the untreated control. […] This improvement, afforded by the insertion of the imidazolium motif, is in line with previous reports of enhanced antibacterial activity when combining imidazolium ILs with non-peptide antibiotics, like ampicillin, including against resistant bacterial strains.
To assess the effects of test compounds on 48 h preformed biofilms of KP010, the biofilms were first grown in TSB from a starting inoculum of 1 × 10^6 CFU/mL in 96-well microtiter plates. After 48 h of incubation at 37 °C, the planktonic cells were removed, and the wells were rinsed and filled with the test compound at a 20× MIC concentration. The optical density at 600 nm was measured at time 0 and after incubation for 24 h at 37 °C. The reduction in the biofilm proliferation was calculated in comparison to the respective non-treated biofilms. Three independent experiments were performed in triplicate.

[6] = test system: K. pneumoniae KP004 (MDR clinical isolate); assay type: cell-based, Klebsiella pneumoniae
Protocol: as §1, §2

[7] = test system: K. pneumoniae KP010 (MDR clinical isolate); assay type: cell-based, Klebsiella pneumoniae
Protocol: as §1, §2

[8] = test system: HaCaT human epidermal keratinocytes; assay type: cell-based; conditions: 24 h
Protocol: (§3) Since this type of IL-AMP conjugate is being developed for its potential interest to address infected skin lesions, a preliminary assessment of the toxicity of both the conjugate and the parent peptide towards HaCaT human epidermal keratinocytes was carried out by the 3-(4,5-dimethylthiazol-2-yl)-2,5-diphenyltetrazolium bromide (MTT) assay, as previously described by us. […] This activity was assessed in two different ways: (i) inhibition of biofilm formation, and (ii) effect on a preformed biofilm. For evaluation of the inhibition of biofilm formation, both conjugate and parent peptide were tested at MIC and sub-inhibitory concentrations (½×MIC and at ¼×MIC) following previously established procedures, and the mass of biofilm formed at these concentrations was assessed through the crystal violet assay. […] Relevantly, the absorbance measured for the control (absence of test compounds) provides confirmation that the bacterial strain used is a good biofilm producer.
The cytotoxicity of peptides to HaCat cells was evaluated using the standard MTT assay. Briefly, cells were seeded at a density of 4 × 10^4 cells/mL, respectively, in 96-well plates and incubated at 37 °C in a 5% CO2 atmosphere. […] Absorbance was read at 570 nm in FlexStation®3 Multi-Mode Microplate Reader (Molecular Devices, San Jose, CA, USA).

[9] = test system: E. coli EC002 (MDR clinical isolate); assay type: cell-based, Escherichia coli
Protocol: as §1, §2

[10] = test system: E. coli Ec2 (MDR clinical isolate); assay type: cell-based, Escherichia coli
Protocol: as §1, §2

[11] = test system: E. coli EC003 (MDR clinical isolate); assay type: cell-based, Escherichia coli
Protocol: as §1, §2

E. coli ATCC 25922 = assay type: cell-based, Escherichia coli
Protocol: as §1, §2

[12] = test system: E. coli EC001 (MDR clinical isolate); assay type: cell-based, Escherichia coli
Protocol: as §1, §2

[13] = test system: Enterococcus faecalis Ef1 (MDR clinical isolate); assay type: cell-based
Protocol: as §1, §2

[14] = test system: Enterococcus faecalis ATCC 29212; assay type: cell-based
Protocol: as §1, §2

tyrosinase = experiment: in vitro; assay type: in vitro ADME; conditions: mushroom (Agaricus bisporus), isolated enzyme, pH 6.8
Description: One of our main motivations to explore IL-peptide conjugates concerns improving the enzymatic stability of the peptide moiety, as poor pharmacokinetics is a major obstacle towards clinical translation of AMP and other bioactive peptides, even when topical applications are envisaged. For instance, in a non-healing infected wound, peptides are vulnerable to modification by endogenous (e.g., tyrosinase, elastase, metalloproteinases) and exogenous (produced by colonizing microbes) enzymes in the wound site. […] The samples were collected at different time points, for 24 h, and were analyzed by HPLC. […]
The IL-peptide conjugate and the parent peptide were both incubated at a final concentration of 10 mM in phosphate buffer (pH 6.8), with the enzyme tyrosinase (CAS:9002-10-2; T3824-250KU) at 18 U/mL, for 24 h at 37 °C. […] The supernatant was then analyzed by HPLC, using a Hitachi-Merck LaChrom Elite system with a reverse-phase C18 column (125 × […] and 5 µm pore size). […]
Results from peptide stability were expressed as the variation of the % of starting compound over time (mean ± SD). Data were analyzed in GraphPad Prism 8.0.1 Software using two-way analysis of variance (ANOVA) followed by Tukey’s multiple comparison test. […]

[15] = test system: K. pneumoniae KP010 biofilms; experiment: Inhibition of biofilm formation, crystal violet assay; assay type: cell-based, Klebsiella pneumoniae; conditions: KP010, TSB, crystal violet absorbance at 595 nm, three independent experiments in triplicate
Protocol: as §3
The ability of the test compounds to inhibit the biofilm formation by KP010 (a MDR clinical isolate of K. pneumoniae) was assessed at the respective MIC, ^1/2×MIC and ^1/4×MIC values in tryptic soy broth (TSB) using the crystal violet assay as previously reported. […]
Figure 1 Effects of 3.1-PP4 and MeIm-3.1-PP4 on formation of K. pneumoniae KP010 biofilms (biomass quantification by crystal violet absorbance at 595 nm). […]

For `CC(C)C[C@H](NC(=O)[C@H](CCCCN)NC(=O)[C@H](CCCCN)NC(=O)Cn1cc(Cn2cc[n+](C)c2)nn1)C(=O)N[C@@H](CC(C)C)C(=O)N[C@@H](CCCCN)C(=O)N[C@@H](Cc1c[nH]c2ccccc12)C(=O)N[C@@H](CC(C)C)C(=O)N[C@@H](CC(C)C)C(=O)N[C@@H](CCCCN)C(=O)N[C@@H](CC(C)C)C(=O)N[C@@H](CC(C)C)C(=O)N[C@@H](CCCCN)C(=O)N[C@H](C(=O)N[C@H](C(=O)N[C@@H](CCCCN)C(=O)N[C@@H](CO)C(N)=O)[C@@H](C)O)[C@@H](C)O` [MeIm-3.1-PP4] (X1-KKLLKWLLKLLKTTKS-NH2), the MIC (S. aureus ATCC 25923) was 24.8 (11.6) ^a μg/mL, the MIC [1] was 12.4 (5.8) μg/mL and the MIC [2] was 3.1 (1.4) μg/mL. The MIC [3] was 1.5 (0.7) μg/mL, the MIC (P. aeruginosa ATCC 27853) was 1.5 (0.7) μg/mL and the MIC [4] was 0.8 (0.4) μg/mL. The “OD600 of planktonic phase of peptide-treated biofilms” value [5] was 0.497± 0.050, the MIC [6] was 49.6 (23.1) μg/mL and the MIC [7] was 6.2 (2.9) μg/mL. The IC50 [8] was 19.4 ± 0.2 µM, the MIC [9] was 1.5 (0.7) μg/mL and the MIC [10] was 1.5 (0.7) μg/mL. For the same compound, the MIC [11] was 1.5 (0.7) μg/mL, the MIC (E. coli ATCC 25922) was 0.8 (0.4) μg/mL and the MIC [12] was 3.1 (1.4) μg/mL. For the same compound, the MIC [13] was 3.1 (1.4) μg/mL, the MIC [14] was 99.3 (46.3) μg/mL and the remaining at 24 h, 10 mM (tyrosinase) was roughly 84%. The “biofilm formed at MIC” value ([15]; at MIC) was “only a little amount of biofilm was formed” and the “biofilm biomass formed at sub-inhibitory concentrations” value ([15]; at ½×MIC and ¼×MIC) was “lower than the control”.

KKLLKWLLKLLKTTKS-NH2 [3.1-PP4] was tested, and the MIC (S. aureus ATCC 25923) was 10.3 (5.3) ^a μg/mL, the MIC [1] was 10.3 (5.3) μg/mL and the MIC [2] was 1.3 (0.7) μg/mL. The MIC [3] was 1.3 (0.7) μg/mL, the MIC (P. aeruginosa ATCC 27853) was 2.3 (1.2) μg/mL and the MIC [4] was 1.3 (0.7) μg/mL. For the same compound, the MIC [6] was 2.3 (1.2) μg/mL, the MIC [7] was 2.3 (1.2) μg/mL and the IC50 [8] was 34.2 ± 0.5 µM. The MIC [9] was 1.3 (0.7) μg/mL, the MIC [10] was 1.3 (0.7) μg/mL and the MIC [11] was 0.6 (0.3) μg/mL. For the same compound, the MIC (E. coli ATCC 25922) was 1.3 (0.7) μg/mL, the MIC [12] was 1.3 (0.7) μg/mL and the MIC [13] was 2.3 (1.2) ^a μg/mL. The MIC [14] was 41.3 (21.3) μg/mL.
